According to patent US20130101996A1, “DETECTION METHOD AND APPARATUS OF ACTIVATED NEUTROPHILS” (SYSMEX CORPORATION, priority 2011, published 2013):

How the values were obtained:
Type in all cases: cell-based, human
[1] = test system: neutrophils; experiment: Flow cytometry (FACSCalibur) of stimulated polymorphonucleocytes, 4DS-SSC scattergram; details: PMA 0.32 nM or fMLP 50 nM, room temperature 10 min; versus non-stimulated control
Protocol: Peripheral blood is extracted from an able-bodied person by using a heparin blood collection tube for hematologic examination. A polynuclear sample of purity 90% or more is obtained by centrifugation of the obtained blood using a monopolymer separation solution (Dainippon Sumitomo Pharma Co., Ltd.) at room temperature. This operation is performed according to instructions of the manufacturer (Dainippon Sumitomo Pharma Co., Ltd.). Then, the obtained polymorphonucleocytes (2×10^5) are suspended in a 1 mL of 0.1% bovine serum albumin (phosphate buffered saline). To stain neutrophils of polymorphonucleocytes, CD16 (antihuman CD16 Fc gamma receptor III (clone: DJ130c).mouse monoclonal antibody/neutrophil specific antibody for RPE labeled flow cytometry; Dako) (final concentration: 750 μg/L) fluorescence-labeled by phycoerythrin (PE) is added to the obtained suspension for incubation at room temperature for 10 min. Next, APF (Aminophenyl Fluorescein, Sekisui Medical Co., Ltd.) (final concentration: 10 μM) as a reagent for ROS detection is added to the suspension, which is left still at room temperature for 30 min. […]

[2] = test system: neutrophils; experiment: Transmission electron microscope observation of stimulated neutrophils; details: PMA or fMLP added, fixed by 2.5% glutaraldehyde
Protocol: A sample containing activated neutrophils is prepared from peripheral blood extracted from an able-bodied person in the same manner as in Example 1. Also, a sample not treated by a stimulating substance is prepared as a control sample.
The samples are fixed by 2.5% glutaraldehyde to prepare electron microscope samples according to the method described in the literature by the inventors (Mari Kono et al. (2009), ‘Morphological definition of CD71 positive reticulocytes by various staining techniques and electron microscopy compared to reticulocytes detected by an automated hematology analyzer’, Clinica Chimica Acta, Vol. 404, p105-110.). The obtained samples are analyzed by using a transmission electron microscope (Hitachi H-7500).

[3] = test system: neutrophils; experiment: Confocal laser microscope observation of APF fluorescence (ROS production) in stimulated neutrophils; details: PMA as stimulating substance, APF 10 μM; confocal laser microscopes
Protocol: A sample containing activated neutrophils is prepared from peripheral blood extracted from an able-bodied person in the same manner as in Example 1. However, only PMA is used as a stimulating substance of neutrophils. A sample (−APF) not treated by APF and a stimulating substance and a sample (+APF) not treated by a stimulating substance are prepared as control samples.
Each prepared sample is moved to a glass bottom dish coated with poly-L-lysine to observe neutrophils in the sample by confocal laser microscopes (IX81 (manufactured by Olympus Corporation), CSU-X1 (manufactured by Yokogawa Electric Corporation), and ImagEM (manufactured by Hamamatsu Photonics K. K.)).

[4] = test system: neutrophils in whole blood; experiment: Whole blood measured by automated blood cell counter XE-2100, DIFF scattergram of 4DS-SSC; details: PMA 0.32 nM, room temperature 10 min; whole blood (EDTA-2K)
Protocol: Peripheral blood is extracted from an able-bodied person by using a blood collection tube containing EDTA-2K for hematologic examination. PMA (manufactured by Sigma-Aldrich Co., LLC.) (final concentration: 0.32 nM) is added to the obtained blood, which is left still at room temperature for 10 min. Whole blood to which PMA is not added is used as a control sample.
The prepared sample is supplied to the automated blood cell counter XE-2100 (manufactured by Sysmex Corporation) for measurement to acquire a DIFF scattergram of 4DS-SSC. The automated blood cell counter XE-2100 automatically treats the sample prepared as described above by using Stromatolyser-4DL and Stromatolyser-4DS (manufactured by Sysmex Corporation) to prepare a measurement sample.

Compound | appearance region of neutrophils in 4DS-SSC scattergram [1] | changes of form of neutrophils (degranulation, vacuole in cytoplasm) [2] | ROS production capability of neutrophils (APF derived fluorescence) [3] | appearance of activated neutrophils in 4DS-SSC scattergram, whole blood [4]
N-Formyl-Met-Leu-Phe [fMLP] | neutrophils appear on other regions | many neutrophils in which degranulation and vacuole are produced in cytoplasm are observed |  | 
CCCCCCCCCCCCCC(=O)O[C@@H]1[C@@H](C)[C@@]2(O)[C@@H](C=C(CO)C[C@]3(O)C(=O)C(C)=C[C@@H]23)[C@@H]2C(C)(C)[C@]12OC(C)=O [PMA, Phorbol 12-myristate 13-acetate] | neutrophils appear on other regions | many neutrophils in which degranulation and vacuole are produced in cytoplasm are observed | enhanced | activated neutrophils appear between a cluster containing neutrophils and a cluster containing eosinophils
